According to patent publication US11096985B2, “Antimicrobial peptides, their variants and uses” (priority 2015, dated 2021):
Where a SMILES comes first, the peptide text is derived from it. [ ]: non-standard residue; d: D form.

Tests used:
[1] = test system: clinical strains of Candida albicans; experiment: MIC, clinical yeast strains, Candida albicans; assay type: cell-based; design: unit: μg/ml
How it was run: (§1)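 MH broth; 5.0×10^5 cfu/ml; peptides 0.125–128 μg/ml; 37° C., 20–24 h; visual no-growth endpoint. Fungal MICs in potato dextrose broth.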

[2] = test system: clinical strains of C. glabrata; experiment: MIC, clinical yeast strains, C. glabrata; assay type: cell-based, Candida glabrata; design: unit: μg/ml
How it was run: as §1

[3] = test system: clinical strains of Serratia marcescens; experiment: MIC, clinical strains of Serratia marcescens; assay type: cell-based; design: unit: µg/mL; conditions: microdilution, Muller Hinton broth-cation adjusted, 0.02% BSA, 0.2% acetic acid
Procedure: (§2) Minimum inhibition concentrations (MICs) were determined against Escherichia coli (ATCC 25922), Staphylococcus aureus (ATCC 25923), Klebsiella pneumoniae (ATCC 10031) and Pseudomonas aeruginosa (ATCC 27853). Also clinical strains of E. coli, K. pneumoniae, E. cloacae, P. aeruginosa, Serratia marcescens, Proteus mirabilis, S. pneumoniae, Acinetobacter baumannii, A. johnsonii and S. aureus were used for MICs assays. Additionally, clinical strains of yeast including Candida albicans, C. glabrata, C. parapsilosis and C. quillermondiae were used. The susceptibility of these microorganisms to Chain peptides were determined using micro broth dilution assay. Colonies of the respective microorganism from Muller Hinton (MH) agar plates incubated overnight were suspended in MH broth media and final concentration of microorganism was adjusted to 5.0×10^5 cfu/ml. An aliquot of 10 μl of each Chain peptide, or gentamicin, tetracycline as reference antibiotics were added in differing concentrations along with 90 μl of bacterial suspension to 96 well polypropylene plates and incubated at 37° C. for 20 to 24 hours. Concentrations of Chain peptides and reference antibiotics ranged from 0.125 to 128 μg/ml and the MICs were recorded as the lowest concentration with no visual growth of bacteria. Similarly, antifungal MICs were tested in Potato dextrose broth.
(§3) Clinical strains of yeasts including Candida albicans, C. glabrata, C. parapsilosis and C. quillermondiae were also tested with the 12 Chain peptides. The minimum inhibitory concentration (MICs) varied between these peptides and are presented in Tables 4a, 4b, 4c and 5a, 5b, 5c. Peptides Chain 105, 201 and 308 are broad spectrum antimicrobials with MICs between 0.5-32 μg/ml against all the bacteria and yeasts tested, except Serratia marcescens and Proteus mirabilis, against which the MICs were between 64-128 μg/ml. Peptide Chain 306 has narrow spectrum activity against E.coli at 1 μg/ml and for the rest of the bacterial strains at >32 μg/ml (FIG. 10).

[4] = test system: clinical strains of C. parapsilosis; experiment: MIC, clinical yeast strains, C. parapsilosis; assay type: cell-based, Candida parapsilosis; design: unit: μg/ml
How it was run: as §1

[5] = test system: clinical strains of Escherichia coli; experiment: MIC, clinical strains of E. coli; assay type: cell-based; design: unit: μg/ml; conditions: microdilution, Muller Hinton broth-cation adjusted, 0.02% BSA, 0.2% acetic acid
Procedure: as §2, §3

[6] = test system: clinical strains of C. quillermondiae; experiment: MIC, clinical yeast strains, C. quillermondiae; assay type: cell-based; conditions: C. quillermondiae clinical yeast strain 1
How it was run: as §1

[7] = test system: clinical strains of Staphylococcus aureus; experiment: MIC, clinical strains of S. aureus; assay type: cell-based; design: unit: μg/ml; conditions: microdilution, Muller Hinton broth-cation adjusted, 0.02% BSA, 0.2% acetic acid
Procedure: as §2, §3

[8] = test system: clinical strains of Pseudomonas aeruginosa; experiment: MIC, clinical strains of P. aeruginosa; assay type: cell-based; design: unit: μg/ml; conditions: microdilution, Muller Hinton broth-cation adjusted, 0.02% BSA, 0.2% acetic acid
Procedure: as §2, §3

[9] = test system: clinical strains of Proteus mirabilis; experiment: MIC, clinical strains of Proteus mirabilis; assay type: cell-based; design: unit: µg/mL; conditions: microdilution, Muller Hinton broth-cation adjusted, 0.02% BSA, 0.2% acetic acid
Procedure: as §2, §3

[10] = test system: clinical strains of Klebsiella pneumoniae; experiment: MIC, clinical strains of K. pneumoniae; assay type: cell-based; design: unit: μg/ml; conditions: microdilution, Muller Hinton broth-cation adjusted, 0.02% BSA, 0.2% acetic acid
Procedure: as §2, §3

[11] = test system: clinical strains of Streptococcus pneumoniae; experiment: MIC, clinical strains of Streptococcus pneumoniae; assay type: cell-based; design: unit: µg/mL; conditions: microdilution, Muller Hinton broth-cation adjusted, 0.02% BSA, 0.2% acetic acid
Procedure: as §2, §3

[12] = test system: clinical strains of Enterobacter cloacae; experiment: MIC, clinical strains of Enterobacter cloacae; assay type: cell-based; design: unit: μg/ml; conditions: microdilution, Muller Hinton broth-cation adjusted, 0.02% BSA, 0.2% acetic acid
Procedure: as §2, §3

Compound: CC(C)C[C@@H](NC(=O)[C@@H](Cc1c[nH]c2ccccc12)NC(=O)[C@@H](Cc1ccccc1)NC(=O)[C@@H](Cc1c[nH]c2ccccc12)NC(=O)[C@@H](CCCCN)NC(=O)[C@@H](CCCNC(=N)N)NC(=O)[C@H](N)Cc1c[nH]c2ccccc12)C(=O)N[C@H](Cc1ccccc1)C(=O)N[C@H](CCCCN)C(=O)N[C@H](CCCCN)C(=O)N[C@H](CCCNC(=N)N)C(=O)O [Chain309D] (H-[dW][dR][dK][dW][dF][dW][dL][dF][dK][dK][dR]-OH)
- Minimum inhibitory concentration ([1]; Candida albicans clinical yeast strain 1): 32
- Minimum inhibitory concentration ([1]; Candida albicans clinical yeast strain 2): 32
- Minimum inhibitory concentration ([1]; Candida albicans clinical yeast strain 3): 16
- Minimum inhibitory concentration ([1]; Candida albicans clinical yeast strain 4): 16
- Minimum inhibitory concentration ([1]; Candida albicans clinical yeast strain 5): 32
- Minimum inhibitory concentration ([2]; C. glabrata clinical yeast strain 1): 32
- Minimum inhibitory concentration ([2]; C. glabrata clinical yeast strain 2): 64
- Minimum inhibitory concentration ([2]; C. glabrata clinical yeast strain 3): 4
- Minimum inhibitory concentration ([2]; C. glabrata clinical yeast strain 4): 128
- Minimum inhibitory concentration ([3]; Serratia marcescens clinical strain 1): >128
- Minimum inhibitory concentration ([3]; Serratia marcescens clinical strain 2): >128
- Minimum inhibitory concentration ([3]; Serratia marcescens clinical strain 3): >128
- Minimum inhibitory concentration ([3]; Serratia marcescens clinical strain 4): >128
- Minimum inhibitory concentration ([3]; Serratia marcescens clinical strain 5): >128
- Minimum inhibitory concentration ([4]; C. parapsilosis clinical yeast strain 1): 64
- Minimum inhibitory concentration ([4]; C. parapsilosis clinical yeast strain 2): 64
- Minimum inhibitory concentration ([4]; C. parapsilosis clinical yeast strain 3): 32
- Minimum inhibitory concentration ([4]; C. parapsilosis clinical yeast strain 4): 16
- Minimum inhibitory concentration ([5]; Escherichia coli clinical strain 1): 0.5
- Minimum inhibitory concentration ([5]; Escherichia coli clinical strain 2): 32
- Minimum inhibitory concentration ([5]; Escherichia coli clinical strain 3): 16
- Minimum inhibitory concentration ([5]; Escherichia coli clinical strain 4): 32
- Minimum inhibitory concentration ([5]; Escherichia coli clinical strain 5): 16
- Minimum inhibitory concentration [6]: 8
- Minimum inhibitory concentration ([7]; Staphylococcus aureus clinical strain 1): 8
- Minimum inhibitory concentration ([7]; Staphylococcus aureus clinical strain 2): 16
- Minimum inhibitory concentration ([7]; Staphylococcus aureus clinical strain 3): 8
- Minimum inhibitory concentration ([7]; Staphylococcus aureus clinical strain 4): 8
- Minimum inhibitory concentration ([7]; Staphylococcus aureus clinical strain 5): 8
- Minimum inhibitory concentration ([8]; Pseudomonas aeruginosa clinical strain 1): 16
- Minimum inhibitory concentration ([8]; Pseudomonas aeruginosa clinical strain 2): 32
- Minimum inhibitory concentration ([8]; Pseudomonas aeruginosa clinical strain 3): 16
- Minimum inhibitory concentration ([8]; Pseudomonas aeruginosa clinical strain 4): 32
- Minimum inhibitory concentration ([8]; Pseudomonas aeruginosa clinical strain 5): 8
- Minimum inhibitory concentration ([9]; Proteus mirabilis clinical strain 1): >128
- Minimum inhibitory concentration ([9]; Proteus mirabilis clinical strain 2): >128
- Minimum inhibitory concentration ([9]; Proteus mirabilis clinical strain 3): >128
- Minimum inhibitory concentration ([9]; Proteus mirabilis clinical strain 4): >128
- Minimum inhibitory concentration ([9]; Proteus mirabilis clinical strain 5): >128
- Minimum inhibitory concentration ([10]; Klebsiella pneumoniae clinical strain 1): 128
- Minimum inhibitory concentration ([10]; Klebsiella pneumoniae clinical strain 2): 32
- Minimum inhibitory concentration ([10]; Klebsiella pneumoniae clinical strain 3): >128
- Minimum inhibitory concentration ([10]; Klebsiella pneumoniae clinical strain 4): 32
- Minimum inhibitory concentration ([10]; Klebsiella pneumoniae clinical strain 5): 128
- Minimum inhibitory concentration ([11]; Streptococcus pneumoniae clinical strain 1): 64
- Minimum inhibitory concentration ([11]; Streptococcus pneumoniae clinical strain 2): 64
- Minimum inhibitory concentration ([11]; Streptococcus pneumoniae clinical strain 3): 64
- Minimum inhibitory concentration ([11]; Streptococcus pneumoniae clinical strain 4): 64
- Minimum inhibitory concentration ([11]; Streptococcus pneumoniae clinical strain 5): 64
- Minimum inhibitory concentration ([12]; Enterobacter cloacae clinical strain 1): >128
- Minimum inhibitory concentration ([12]; Enterobacter cloacae clinical strain 2): 128
- Minimum inhibitory concentration ([12]; Enterobacter cloacae clinical strain 3): 64
- Minimum inhibitory concentration ([12]; Enterobacter cloacae clinical strain 4): 64
- Minimum inhibitory concentration ([12]; Enterobacter cloacae clinical strain 5): 32
